By IC50 is commonly meant the concentration needed to halve the response being measured. A higher IC50 goes with a need for much substance. By AUC(0-inf) is commonly meant the area under the concentration-time curve extrapolated to infinity. As usually defined, the clearance is the volume of plasma or blood freed of the substance per unit of time. For orientation: MRT means the average time that molecules of a dose stay in the body. As a reminder, the Cmax is the peak of the concentration-time curve.

Each structure is given as a SMILES string.

From article PMC4710522, “A Novel Triazolopyridine-Based Spleen Tyrosine Kinase Inhibitor That Arrests Joint Inflammation” (PLoS ONE, 2016) come the findings set out here.

The target in one data set is T1, Rsk1_h (Homo sapiens, UniProt Q15418).
T1 construct: purchased Life Technologies (Invitrogen) SelectScreen, Z'-LYTE / Adapta
As to the kind of experiment: SelectScreen kinase assay. Particulars: KM ATP, read-out: % control. Format: biochemical.

Another data set addresses T2, human KDR in Hek cells (Homo sapiens, UniProt P35968).
T2 construct: host or cells: HEK293
The experiment in a line: KDR cellular selectivity assay (VEGF-induced KDR autophosphorylation). In kind it is cell-based.

In a further data set the target is T3, PKC-iota_h (Homo sapiens, UniProt P41743).
T3 construct: purchased Life Technologies (Invitrogen) SelectScreen, Z'-LYTE / Adapta
As to the kind of experiment: SelectScreen kinase assay. Particulars: KM ATP, read-out: % control. In kind it is biochemical.

The nature of the next data set: rat pharmacokinetics. The following applies: Sprague-Dawley, plasma. Format: in vivo. How it is done: Male and Female Sprague-dawley rats with jugular vein cannulation were obtained from Charles River Laboratories. All rats were maintained under standard conditions with access to food and water ad libitum. For intravenous (i.v.) dosing, CC-509 was dissolved in DMA/PEG400 (15/85, V/V). A dose of 2 mg/kg was administered to three male rats via jugular vein cannula with a dosing volume of 2 mL/kg followed by flushing 0.5 mL saline through the cannula. Blood were collected at 0.083, 0.25, 0.5, 1, 2, 4, 6, 8 and 24hr post dose. Plasma samples were separated by centrifugation of blood and stored at -20°C until analysis. For oral administration, four female rats (220–250g) were fasted for 12hr but allowed to access water prior to the dosing. CC-509 was formulated in 20% Captisol as a solution and was administered to the rats at 10 mg/kg by oral gavage with a dosing volume of 5mL/kg. Food was returned to the rats 2hr post dosing. Blood samples were collected at 0.5, 1, 2, 4, 6, 8 and 24hr post dose. Plasma samples were separated by centrifugation of blood and stored at -20°C until analysis. Plasma concentrations of CC-509 were quantified by a LC/MS/MS method. A total of 50 microliters (μL) of each plasma sample was extracted with three volumes of mixed solvent (methanol:acetonitrile (1:1). The extracted samples were filtered through a filtration plate (0.45μm, Varian, Inc.) and the filtrates were injected onto a LC-MS system. The LC-MS system consisted of a ThermoScientific (Waltham, MA) TSQ Quantum Ultra™ Mass Spectrometer coupled with a Thermo Accela™ ultra-high pressure liquid chromatogram (UPLC) system. Separation was achieved on a Thermo Hypersil Gold™ column (50 x 2.1 mm, 1.9 μm) by running a linear gradient of mobile phase at a flow rate of 0.5 mL/min. Mobile phase A and B consisted of 0.1% formic acid in water and 0.1% formic acid in methanol, respectively. Quantitation was performed using selected reaction monitoring (SRM) at the transition m/z 448 to m/z 364 for CC-509. PK parameters in plasma were estimated by WinNonLin software (Pharsight, Princeton, NJ) using non-compartmental analysis. For i.v. dosing, plasma clearance (CLp), volume distribution at steady-state (Vss) and mean residence time (MRT) were estimated. For oral administration, the maximum plasma concentration (Cmax), the time when the maximum plasma concentration is reached (Tmax) and area under the curve from 0 to infinity (AUC0-inf) were calculated.

The target in data set [1] is T4, human ether-à-go-go-related Gene (hERG) channel (Homo sapiens, UniProt Q12809).
T4 construct: ChanTest (contract assay)
The experiment in a line: non-GLP manual patch clamp hERG assay (ChanTest). Particulars: data not shown. Format: cell-based. The procedure:
Syk kinase mode of inhibition studies, including parameters described in Fig 1, were conducted on the LC3000 platform by Caliper Life Sciences (Hopkinton, MA) according to standard protocols developed by the supplier. […] Non-kinase enzyme assays and GPCR, ion channel, and transporter binding assays were run by CEREP (France). Non-GLP manual patch clamp hERG assays were run by ChanTest (Cleveland, Ohio). Vivid® Assay kits (Life Technologies) were used to measure the cytochrome P450 inhibition of the compound against CYP3A, CYP2C9, CYP2C19, CYP2D6, and CYP1A2, as described.
A general note: The patch-clamp technique gives a direct electrical read-out from membranes.

The target of another data set is T5, PKC-eta_h (Homo sapiens, UniProt P24723).
T5 construct: purchased Life Technologies (Invitrogen) SelectScreen, Z'-LYTE / Adapta
As to the kind of experiment: SelectScreen kinase assay. The following applies: KM ATP, read-out: % control. Format: biochemical.

For the next data set, the target named is T6, NEK7_h (Homo sapiens, UniProt Q8TDX7).
T6 construct: purchased Life Technologies (Invitrogen) SelectScreen, Z'-LYTE / Adapta
As to the kind of experiment: SelectScreen kinase assay. In kind it is biochemical. The following applies: KM ATP, read-out: % control.

T2 sequence (P35968 20-1356): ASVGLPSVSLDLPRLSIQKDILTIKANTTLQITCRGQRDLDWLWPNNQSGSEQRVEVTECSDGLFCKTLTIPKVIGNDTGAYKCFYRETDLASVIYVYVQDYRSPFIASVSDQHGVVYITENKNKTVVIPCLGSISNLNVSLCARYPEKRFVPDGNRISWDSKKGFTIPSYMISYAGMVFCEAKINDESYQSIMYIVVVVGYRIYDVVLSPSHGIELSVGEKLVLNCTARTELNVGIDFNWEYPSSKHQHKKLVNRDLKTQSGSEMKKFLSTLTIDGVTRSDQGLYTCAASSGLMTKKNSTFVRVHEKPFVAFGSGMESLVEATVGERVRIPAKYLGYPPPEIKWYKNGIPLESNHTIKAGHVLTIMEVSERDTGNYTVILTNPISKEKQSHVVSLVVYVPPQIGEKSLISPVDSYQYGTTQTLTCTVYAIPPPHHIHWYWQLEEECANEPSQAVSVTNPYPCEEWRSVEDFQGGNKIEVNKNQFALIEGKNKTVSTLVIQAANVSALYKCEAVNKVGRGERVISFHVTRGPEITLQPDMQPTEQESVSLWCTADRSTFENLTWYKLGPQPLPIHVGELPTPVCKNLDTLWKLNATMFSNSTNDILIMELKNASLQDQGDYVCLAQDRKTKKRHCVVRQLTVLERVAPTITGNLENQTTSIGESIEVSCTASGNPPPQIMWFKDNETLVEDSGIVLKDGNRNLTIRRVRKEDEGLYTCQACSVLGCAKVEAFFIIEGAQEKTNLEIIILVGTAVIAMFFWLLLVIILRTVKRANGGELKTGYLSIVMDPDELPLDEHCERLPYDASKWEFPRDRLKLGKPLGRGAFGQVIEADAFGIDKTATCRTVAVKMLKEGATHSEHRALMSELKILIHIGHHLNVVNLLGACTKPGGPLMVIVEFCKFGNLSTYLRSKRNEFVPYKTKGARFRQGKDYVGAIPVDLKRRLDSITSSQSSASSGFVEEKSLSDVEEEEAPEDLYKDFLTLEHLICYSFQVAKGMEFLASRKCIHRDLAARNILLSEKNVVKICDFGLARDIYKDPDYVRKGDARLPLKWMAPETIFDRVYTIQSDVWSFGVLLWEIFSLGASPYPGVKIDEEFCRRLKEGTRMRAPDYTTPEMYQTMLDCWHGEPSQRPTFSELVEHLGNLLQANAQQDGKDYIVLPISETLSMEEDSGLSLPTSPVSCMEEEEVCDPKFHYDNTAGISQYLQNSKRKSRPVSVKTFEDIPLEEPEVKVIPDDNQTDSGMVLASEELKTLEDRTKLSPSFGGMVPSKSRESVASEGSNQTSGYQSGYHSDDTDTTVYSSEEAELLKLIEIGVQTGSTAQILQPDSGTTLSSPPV
T3 sequence (P41743 whole entry): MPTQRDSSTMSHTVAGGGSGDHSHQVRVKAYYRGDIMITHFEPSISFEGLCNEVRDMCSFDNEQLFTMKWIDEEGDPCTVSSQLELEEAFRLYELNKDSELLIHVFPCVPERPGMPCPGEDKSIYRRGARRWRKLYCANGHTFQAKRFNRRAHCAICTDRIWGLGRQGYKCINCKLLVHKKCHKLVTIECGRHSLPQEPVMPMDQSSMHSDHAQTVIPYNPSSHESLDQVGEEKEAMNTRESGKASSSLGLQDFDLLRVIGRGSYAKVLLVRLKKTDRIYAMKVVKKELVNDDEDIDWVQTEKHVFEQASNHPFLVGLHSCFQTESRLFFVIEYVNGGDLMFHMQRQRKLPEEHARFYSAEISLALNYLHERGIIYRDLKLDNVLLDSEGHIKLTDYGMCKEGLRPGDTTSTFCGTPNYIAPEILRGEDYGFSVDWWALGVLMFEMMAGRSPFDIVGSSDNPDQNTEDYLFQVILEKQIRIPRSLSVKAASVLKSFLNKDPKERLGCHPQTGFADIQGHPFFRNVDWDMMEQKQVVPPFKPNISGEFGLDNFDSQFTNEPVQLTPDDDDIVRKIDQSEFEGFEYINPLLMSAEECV
T1 sequence (Q15418 whole entry): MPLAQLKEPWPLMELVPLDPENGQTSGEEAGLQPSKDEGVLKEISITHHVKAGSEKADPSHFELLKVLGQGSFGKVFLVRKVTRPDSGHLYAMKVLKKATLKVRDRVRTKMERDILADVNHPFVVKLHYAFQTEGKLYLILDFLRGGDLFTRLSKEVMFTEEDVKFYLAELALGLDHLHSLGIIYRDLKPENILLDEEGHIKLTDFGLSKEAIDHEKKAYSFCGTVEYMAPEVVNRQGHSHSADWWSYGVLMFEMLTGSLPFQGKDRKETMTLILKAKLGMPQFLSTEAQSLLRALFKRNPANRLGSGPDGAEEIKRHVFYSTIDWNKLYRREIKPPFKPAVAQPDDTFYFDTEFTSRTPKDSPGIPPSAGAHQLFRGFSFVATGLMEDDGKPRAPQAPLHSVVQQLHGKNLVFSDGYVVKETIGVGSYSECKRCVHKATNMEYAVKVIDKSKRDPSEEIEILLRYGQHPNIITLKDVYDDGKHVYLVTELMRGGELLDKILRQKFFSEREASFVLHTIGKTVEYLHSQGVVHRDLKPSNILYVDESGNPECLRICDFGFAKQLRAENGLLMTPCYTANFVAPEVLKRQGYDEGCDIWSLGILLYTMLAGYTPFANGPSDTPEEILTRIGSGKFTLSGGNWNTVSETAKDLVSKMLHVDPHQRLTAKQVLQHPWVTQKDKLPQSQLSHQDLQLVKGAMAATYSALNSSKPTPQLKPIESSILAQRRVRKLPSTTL
T5 sequence (P24723 whole entry): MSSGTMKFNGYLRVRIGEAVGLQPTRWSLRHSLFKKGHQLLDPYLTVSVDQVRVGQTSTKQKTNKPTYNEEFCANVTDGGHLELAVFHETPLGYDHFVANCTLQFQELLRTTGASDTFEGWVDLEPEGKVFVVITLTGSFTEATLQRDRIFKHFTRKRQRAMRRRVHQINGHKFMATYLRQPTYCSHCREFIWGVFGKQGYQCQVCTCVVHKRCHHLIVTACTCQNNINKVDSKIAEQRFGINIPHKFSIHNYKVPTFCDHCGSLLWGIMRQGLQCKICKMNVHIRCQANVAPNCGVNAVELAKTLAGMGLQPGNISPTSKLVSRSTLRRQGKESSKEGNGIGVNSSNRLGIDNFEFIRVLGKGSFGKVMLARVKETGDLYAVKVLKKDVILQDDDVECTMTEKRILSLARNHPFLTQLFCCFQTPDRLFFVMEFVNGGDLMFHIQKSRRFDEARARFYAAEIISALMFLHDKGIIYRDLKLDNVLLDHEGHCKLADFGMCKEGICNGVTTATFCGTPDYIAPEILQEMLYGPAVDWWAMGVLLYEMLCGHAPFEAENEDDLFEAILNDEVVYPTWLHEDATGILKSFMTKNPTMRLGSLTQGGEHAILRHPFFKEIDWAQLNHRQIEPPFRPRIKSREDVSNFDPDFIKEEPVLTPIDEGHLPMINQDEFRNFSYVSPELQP
T6 sequence (Q8TDX7 whole entry): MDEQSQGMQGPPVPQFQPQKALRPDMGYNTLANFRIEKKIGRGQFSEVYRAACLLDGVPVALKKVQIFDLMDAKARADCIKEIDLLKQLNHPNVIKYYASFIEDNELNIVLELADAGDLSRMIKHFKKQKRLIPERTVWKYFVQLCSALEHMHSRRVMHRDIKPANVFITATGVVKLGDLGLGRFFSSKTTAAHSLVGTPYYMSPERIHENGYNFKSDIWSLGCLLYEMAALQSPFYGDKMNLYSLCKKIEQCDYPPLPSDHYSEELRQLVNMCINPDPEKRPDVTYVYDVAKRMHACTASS
T4 sequence (Q12809 whole entry): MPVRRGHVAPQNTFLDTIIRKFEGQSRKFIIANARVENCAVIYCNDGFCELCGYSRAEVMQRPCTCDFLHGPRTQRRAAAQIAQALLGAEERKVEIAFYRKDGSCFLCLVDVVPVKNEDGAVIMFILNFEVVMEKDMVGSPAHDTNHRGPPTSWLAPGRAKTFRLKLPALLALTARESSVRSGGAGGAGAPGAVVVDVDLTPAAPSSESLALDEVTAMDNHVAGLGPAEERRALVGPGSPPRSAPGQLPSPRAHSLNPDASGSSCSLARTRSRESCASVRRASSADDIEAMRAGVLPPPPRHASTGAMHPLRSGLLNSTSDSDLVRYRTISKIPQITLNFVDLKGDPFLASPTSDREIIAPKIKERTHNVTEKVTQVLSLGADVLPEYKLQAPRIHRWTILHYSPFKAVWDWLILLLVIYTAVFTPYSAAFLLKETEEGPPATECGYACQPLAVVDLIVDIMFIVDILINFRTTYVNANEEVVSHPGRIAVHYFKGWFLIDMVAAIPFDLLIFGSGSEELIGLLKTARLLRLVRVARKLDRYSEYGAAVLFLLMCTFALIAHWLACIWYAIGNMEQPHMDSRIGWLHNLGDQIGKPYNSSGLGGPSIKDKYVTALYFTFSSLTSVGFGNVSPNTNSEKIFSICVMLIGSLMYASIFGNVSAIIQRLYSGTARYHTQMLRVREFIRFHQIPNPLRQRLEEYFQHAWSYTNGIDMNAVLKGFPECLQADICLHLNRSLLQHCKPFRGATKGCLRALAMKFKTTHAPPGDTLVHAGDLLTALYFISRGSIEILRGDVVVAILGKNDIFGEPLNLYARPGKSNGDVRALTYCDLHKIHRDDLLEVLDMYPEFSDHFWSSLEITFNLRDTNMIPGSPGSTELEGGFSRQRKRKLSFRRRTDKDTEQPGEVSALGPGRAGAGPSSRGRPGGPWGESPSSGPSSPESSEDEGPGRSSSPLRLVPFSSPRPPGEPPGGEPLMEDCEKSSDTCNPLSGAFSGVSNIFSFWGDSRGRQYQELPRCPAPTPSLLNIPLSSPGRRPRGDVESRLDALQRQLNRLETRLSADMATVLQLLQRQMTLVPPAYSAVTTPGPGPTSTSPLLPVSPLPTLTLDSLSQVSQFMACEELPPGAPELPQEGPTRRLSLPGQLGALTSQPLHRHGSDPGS
Procedure for human KDR in Hek cells: HEK KDR cells were plated on 96-well flat bottom plates for 16 hours in a tissue culture incubator. […] Briefly, cells on plates were lysed with Mesoscale lysis buffer (containing phosphatase/ proteinase inhibitors and 0.05% SDS), frozen at -80°C for 2 hours, and then placed on an orbital shaker at 4°C for 16 hours. Cell lysate was transferred to a blocked phopsho-KDR plate, incubated at room temperature for 2 hours, washed twice, and blotted dry. The detection antibody was added to all wells on the plate, incubated for 2 hours at room temperature on an orbital shaker, and plate was washed three times. Diluted Mesoscale detection solution was added to each well and the plates were read on the Sector Imager instrument (Mesoscale, Gaithersberg, MD).
For the neutrophil, macrophage, KDR, and JAK1/3 assays, raw values were exported into ActivityBase to calculate percent inhibition. All IC50 calculations were generated using XLfit (IDBS, Guildford, UK) algorithm 205 within Excel.

As for `c1cc(CC2CCOCC2)n2nc(Nc3ccc4c(NC5CCOCC5)n[nH]c4c3)nc2c1` [CC-509, [3-(2H-3,4,5,6-tetrahydropyran-4-ylamino)(1H-indazol-6-yl)][5-(2H-3,4,5,6-tetrahydropyran-4-ylmethyl)(2H-1,2,4-triazolo[1,5-a]pyridin-2-yl)]amine], the remaining activity at 3 µM was found to be 60% on Rsk1_h, 88% at PKC-iota_h, 102% on PKC-eta_h and 102% on NEK7_h. In addition, the IC50 against human KDR in Hek cells (Hek cells) was found to be 7.43 ± 3.36 µM. At human KDR in Hek cells (R406 more potent), the “fold difference in potency between R406 and CC-509, KDR cellular assay” value was 10 fold. Also, the total exposure AUC(0-inf) came to 4.02 ± 0.7 µM·h in the data set “rat pharmacokinetics” (iv, i.v. 2 mg/kg, male rats) and 12 ± 1 µM·h in “rat pharmacokinetics” (oral 10 mg/kg, female rats). The clearance in “rat pharmacokinetics” (iv, i.v. 2 mg/kg, male rats, read-out: clearance (CL)) worked out at 18.9 ± 3.5 mL/min/kg. In addition, the MRT in “rat pharmacokinetics” (iv, i.v. 2 mg/kg, male rats, read-out: mean residence time (MRT)) was 2.3 ± 1.5 h. Also, the Vd in “rat pharmacokinetics” (iv, i.v. 2 mg/kg, male rats, read-out: volume of distribution (Vss)) came to 2.8 ± 2.36 L/kg. In addition, the concentration in “rat pharmacokinetics” (oral 10 mg/kg, female rats) peaked (Cmax) at 4.4 ± 0.2 µM. The Tmax in the data set “rat pharmacokinetics” (oral 10 mg/kg, female rats, read-out: time of maximal plasma concentration (converted)) was 0.5 h. In data set [1], the “inhibition of hERG channel activity” value was “did not inhibit”.
